Results published in patent US4943570A, “Benzimidazolesulfonamides and imidazopyridinesulfonamides, and their application as drugs” (Laboratorios Del Dr. Esteve, S.A., priority 1986, dated 1990).

Legend:
[1] = Acute toxicity in mice (Litchfield and Wilcoxon); format: in vivo; conditions: mouse, in vivo, po, administered orally
Method: (§1) Method of Litchfield and Wilcoxon (J. T. Litchfield and E. J. Wilcoxon: J. Pharmacol. Exp. Therap., 96, 19-113 (1949)).
(§2) The product is administered orally as a suspension in gum arabic at a concentration of 5% in double-distilled water. The volume administered is 10 - ml/kg. The 50% lethal dose (LD50) is calculated by the method cited.

gastric acid secretion = experiment: Inhibition of gastric acid secretion in Shay rats (Shay's method, pylorus ligation); format: in vivo, Male Wistar rats; conditions: Rattus norvegicus, administered intraduodenally; for ED50: 2 h; for inhibition in vivo at 40 mg/kg: intraduodenal, 2 h after pylorus ligation, read-out: Percentage inhibition of gastric acid secretion
Text: Shay's method [H. Shay; S. A. Komarov; S. S. Fels; D. Merange: M. Grvenstein; H. Siplet: Gastroenterology, 5, 43 (1945)--F. E. Visscber; P. H. Seay: A. P. Taxelaar; W. Veldkamp; M. J. Vander Brook: J. Pharmac. Exp. Ther., 110, 188 (1954)--"Animal Experiments in Pharmacological Analysis", F. R. Domer: C. C. Thomas, published by Springfield, Ill., U.S.A., 1970, p. 140].
Male Wistar rats weighing 200 to 250 grams are used in this test; they are fasted from the day preceding the day of the test, with free access to water. Groups containing a minimum of 4 animals each are used.
The rats are anesthetized with ethyl ether, a laparotomy is performed on them and their pylorus is ligated; the abdominal incision is then sewn up. The administration of the products, with the vehicle for the control group, is effected intraduodenally (i.d.) before the abdominal incision is sewn up. The dose administered in the first test is 40 mg/kg and the 50% effective dose (ED50), administered intraduodenally, is also determined in a second test. The vehicle used is gum arabic at a concentration of 5% w/v in double-distilled water.
Two hours after ligation of the pylorus, the rats are sacrificed by prolonged anesthesia with ethyl ether and the volume of gastric juice is measured; the total acidity is determined by means of a pH meter equipped with an automatic burette. For each product and each dose tested, the percentage inhibition of gastric acid secretion is determined relative to the control group.

[2] = test system: gastric lesions induced by ethanol; experiment: Gastric cytoprotection: inhibition of gastric lesions induced by ethanol; format: in vivo, Male Wistar rats; conditions: 40 mg/kg oral
Method: Male Wistar rats weighing 150 to 200 grams are used in this test; they are fasted for 24 hours, but with water "ad libitum". Groups containing a minimum of 5 animals each are used.
At the beginning of the study, the rats receive the products described, or the vehicle in the case of the rats in the control group, by oral administration using a stomach tube. The dose administered for the products described is 40 mg/kg. The vehicle employed is gum arabic at a concentration of 5% w/v in double-distilled water.
Thirty minutes after the treatment, the rats receive 1 ml of absolute ethanol by oral administration using a stomach tube. One hour after the treatment with ethanol, the rats are sacrificed by prolonged anesthesia with ethyl ether, their stomachs are extracted and opened along the greater curvature and the lesions in the stomach mucosa are evaluated. For this evaluation, the hemorrhage points are counted and the size of the necrotic ulcers is measured.
For each product tested, the percentage inhibition of gastric lesions is determined relative to the control group.

[3] = test system: gastric lesions induced by stress due to immobilization and cold; experiment: Ulcer-inhibiting activity: inhibition of gastric lesions induced by stress due to immobilization and cold; format: in vivo, Male Wistar rats; conditions: 40 mg/kg oral
Method: Male Wistar rats weighing […] to 200 grams are used in this test; they are fasted in individual cages for 24 hours before the study begins, but with water "ad libitum". Groups containing a minimum of 5 animals each are used.
At the start of the study, the rats receive the products described, or alternatively the vehicle in the case of the control group, by oral administration using a stomach tube. The administered dose of the products described is 40 mg/kg. The vehicle used is gum arabic at a concentration of 5% w/v in double-distilled water.
Immediately after the treatment, the rats are introduced into confined enclosures in the form of a plastic tube with a diameter of about 5 cm and a variable length which can be adapted to the size of the rat. One hour after the treatment, the rats, in their enclosures, are placed in a refrigerator at -5° C. for 3 hours. Immediately after exposure to the cold, the rats are killed by prolonged anesthesia with ethyl ether, the stomachs are extracted and opened along the greater curvature and the lesions in the stomach mucosa are evaluated. For this evaluation, the hemorrhage points are counted and the size of the necrotic ulcers is measured.
For each product and each dose tested, the percentage inhibition of gastric lesions is determined relative to the control group.

mice = experiment: Acute toxicity in mice (Litchfield and Wilcoxon); format: in vivo; conditions: administered orally; female
Method: as §1, §2

[4] = relative to control (gum arabic)

Molecule `O=S(=O)(NCCN1CCOCC1)c1nc2ccccc2[nH]1` [Example 6] has an LD50 ([1]; female) of 2600 mg/kg and an LD50 ([1]; male) of 3300 mg/kg.

Molecule `O=S(=O)(NCCCN1CCOCC1)c1nc2ccccc2[nH]1` [Example 8, N-[3-(4-Morpholinopropyl)]-1H-benzimidazole-2-sulfonamide] has an LD50 ([1]; female) of 6400 mg/kg and an LD50 ([1]; male) of 6400 mg/kg.

With `O=S(=O)(Nc1ccc(Cl)cc1)c1nc2cc(Cl)ccc2[nH]1` [Example 16, 5-Chloro-N-(4-chlorophenyl)-1H-benzimidazoIe-2-sulfonamide] the ED50 (gastric acid secretion) was 42.6 mg/kg, the inhibition in vivo at 40 mg/kg (gastric acid secretion) was 48% and the LD50 ([1]; female) was 1500 mg/kg. It also gave an LD50 ([1]; male) of 2000 mg/kg.

Molecule `CCN(CC)CCCC(C)NS(=O)(=O)c1nc2cc(Cl)ccc2[nH]1` (stereo not shown) [Example 18, 5-Chloro-N-(4-diethylamino-1-methylbutyl)-1H-benzimidazole-2-sulfonamide] has an ED50 (gastric acid secretion) of 53.5 mg/kg, an inhibition in vivo at 40 mg/kg (gastric acid secretion) of 41% and an LD50 ([1]; female) of 4000 mg/kg. The LD50 ([1]; male) was 2000 mg/kg.

`CCNS(=O)(=O)c1nc2c([N+](=O)[O-])cccc2[nH]1` [Example 21, N-Ethyl-4-nitro-1H-benzimidazole-2-sulfonamide] gave an LD50 ([1]; female) of over 1600 mg/kg and an LD50 ([1]; male) of over 1600 mg/kg.

`O=S(=O)(NCc1ccccn1)c1nc2ccccc2[nH]1` [Example 31, N-(2-Pyridylmethyl)-1H-benzimidazole-2-sulfonamide] gave an LD50 ([1]; female) of over 6400 mg/kg and an LD50 ([1]; male) of over 6400 mg/kg.

`NS(=O)(=O)c1nc2cc([N+](=O)[O-])ccc2[nH]1` [Example 34, 5-Nitro-1H-benzimidazole-2-sulfonamide] gave an ED50 (gastric acid secretion) of 29.9 mg/kg, an inhibition in vivo at 40 mg/kg (gastric acid secretion) of 63% and an LD50 ([1]; female) of over 6400 mg/kg. It also gave an LD50 ([1]; male) of over 6400 mg/kg.

Work on `O=[N+]([O-])c1ccc2[nH]c(S(=O)(=O)NCCCN3CCOCC3)nc2c1` [Example 38, N-[3-(4-Morpholinopropyl)]-5-nitro-1H-benzimidazole-2-sulfonamide] yielded an LD50 ([1]; female) of over 6400 mg/kg and an LD50 ([1]; male) of over 6400 mg/kg.

`CCN(CC)S(=O)(=O)c1nc2ccc([N+](=O)[O-])cc2n1CC` [Example 71, 6-nitro-1,N,N-triethyl-1H-benzimidazole-2-sulfonamide] showed an LD50 ([1]; female) of 6400 mg/kg and an LD50 ([1]; male) of 6400 mg/kg.

With `O=S1(=O)c2nc3ccccc3n2CCN1CCCN1CCOCC1` [Example 92] the LD50 ([1]; female) was 6400 mg/kg and the LD50 ([1]; male) was 6400 mg/kg.

Molecule `COc1ccc(CCN2CCn3c(nc4ccccc43)S2(=O)=O)cc1OC` [Example 99, 3,4-Dihydro-2H-2-[2-(3,4-dimethoxyphenylethyl)]-[1,2,5]-thiadiazino[5,6-a]benzimidazole 1,1-dioxide] has an LD50 ([1]; female) of over 3200 mg/kg and an LD50 ([1]; male) of over 3200 mg/kg.

For `CCN1CCn2c(nc3ccc([N+](=O)[O-])cc32)S1(=O)=O` [Example 127, 3,4-Dihydro-2H-2-ethyl-7-nitro-[1,2,5]-thiadiazino-[5,6-a]benzimidazole 1,1-dioxide], the ED50 (gastric acid secretion) was 52.4 mg/kg, the inhibition in vivo at 40 mg/kg (gastric acid secretion) was 56.3% and the LD50 ([1]; female) was over 6400 mg/kg. The LD50 ([1]; male) was over 6400 mg/kg.

Work on `CCN1CCn2c(nc3cc([N+](=O)[O-])ccc32)S1(=O)=O` [Example 128, 3,4-Dihydro-2H-2-ethyl-8-nitro-[1,2,5]-thiadiazino-[5,6-a]benzimidazole 1,1-dioxide] yielded an LD50 ([1]; female) of over 3200 mg/kg and an LD50 ([1]; male) of over 2200 mg/kg.

`CCCCN1CCn2c(nc3cc([N+](=O)[O-])ccc32)S1(=O)=O` [Example 133, 2H-2-Butyl-3,4-dihydro-8-nitro-[1,2,5]-thiadiazino-[5,6-a]benzimidazole 1,1-dioxide] showed an ED50 (gastric acid secretion) of 58.3 mg/kg, an inhibition in vivo at 40 mg/kg (gastric acid secretion) of 40% and an LD50 ([1]; female) of over 3200 mg/kg. The LD50 ([1]; male) was over 3200 mg/kg.

With `CCCCN1CCn2c(nc3ccc([N+](=O)[O-])cc32)S1(=O)=O` [Example 134, 2H-2-butyl-3,4-dihydro-7-nitro-[1,2,5]-thiadiazino[5,6-a]benzimidazole 1,1-dioxide] the ED50 (gastric acid secretion) was 20.7 mg/kg, the inhibition in vivo at 40 mg/kg (gastric acid secretion) was 70.3% and the LD50 ([1]; female) was over 3200 mg/kg. For the same molecule, the LD50 ([1]; male) was over 3200 mg/kg.

In the case of `O=[N+]([O-])c1ccc2nc3n(c2c1)CCN(CCCN1CCOCC1)S3(=O)=O` [Example 142], the ED50 (gastric acid secretion) is reported as 17.5 mg/kg, the inhibition in vivo at 40 mg/kg (gastric acid secretion) is reported as 79.4% and the “Evaluation of the lesions (x ± standard deviation)” value [2] is reported as 0. For the same molecule, the “Inhibition of gastric lesions” value [2, 4] was 100%.

With `CCN(CC)CCCC(C)N1CCn2c(nc3ccc([N+](=O)[O-])cc32)S1(=O)=O` (stereo not shown) [Example 144, 2H-2-(4-Diethylamino-1-methylbutyl)-3,4-dihydro-7-nitro-[1,2,5,]-thiadiazino[5,6-a]benzimidazole 1,1-dioxide] the ED50 (gastric acid secretion) was 10 mg/kg, the inhibition in vivo at 40 mg/kg (gastric acid secretion) was 93.7% and the “Inhibition of gastric lesions” value [3, 4] was 100%. For the same molecule, the “Evaluation of the lesions (x ± standard deviation)” value ([3]; stress (immobilization and cold), 10 rats) was 0.

Molecule `CCN1C(C)Cn2c(nc3ccccc32)S1(=O)=O` (stereo not shown) [Example 170, 3,4-Dihydro-2H-2-ethyl-3-methyl-[1,2,5]-thiadiazino[5,6-a]benzimidazole 1,1-dioxide] has an ED50 (gastric acid secretion) of 21.8 mg/kg and an inhibition in vivo at 40 mg/kg (gastric acid secretion) of 73.2%.

In the case of `CCCCN1CCn2c(nc3cccnc32)S1(=O)=O` [Example 173, 2H-2-Butyl-3,4-Dihydropyrido[3', 2':4,5]imidazo[1,2-e]-[1,2,5]-thiadiazine 1,1-dioxide], the ED50 (gastric acid secretion) is reported as 39.2 mg/kg and the inhibition in vivo at 40 mg/kg (gastric acid secretion) is reported as 57.1%.

In the case of `CCN1C(c2ccccc2)=Cn2c(nc3ccccc32)S1(=O)=O` [Example 177, 2H-2-ethyl-3-phenyl-[1,2,5]-thiadiazino[5,6-a]benzimidazole 1,1-dioxide], the ED50 (gastric acid secretion) is reported as 38.1 mg/kg and the inhibition in vivo at 40 mg/kg (gastric acid secretion) is reported as 53.7%.

`CCN1C(c2ccc([N+](=O)[O-])cc2)=Cn2c(nc3ccc([N+](=O)[O-])cc32)S1(=O)=O` [Example 179, 2H-2-Ethyl-7-nitro-3-(4-nitrophenyl)-[1,2,5]-thiadiazino-[5,6-a]benzimidazole 1,1-dioxide] gave an LD50 ([1]; male) of over 6400 mg/kg and an LD50 (mice) of over 6400 mg/kg.

With `O=S1(=O)c2nc3ccccc3n2CC2CCCCN21` (stereo not shown) [Example 180, 1,2,3,4,13,14-hexahydropyrido-[1',2':2,3]-[1,2,5]-thiadiazino[5,6-a]-benzimidazole 6,6-dioxide] the ED50 (gastric acid secretion) was 43.7 mg/kg and the inhibition in vivo at 40 mg/kg (gastric acid secretion) was 43.8%.

In the case of `O=[N+]([O-])c1ccc2c(c1)nc1n2CC2CCCCN2S1(=O)=O` (stereo not shown) [Example 181, 1,2,3,4,13,14-Hexahydro-9-nitropyrido[1',2':2,3]-[1,2,5-thiadiazino5,6-a]benzimidazole 6,6-dioxide], the ED50 (gastric acid secretion) is reported as 62 mg/kg and the inhibition in vivo at 40 mg/kg (gastric acid secretion) is reported as 43.4%.

`O=[N+]([O-])c1ccc2nc3n(c2c1)CC1CCCCN1S3(=O)=O` (stereo not shown) [Example 182, 1,2,3,4,13,14-Hexahydro-10-nitropyrido[1',2':2,3]-[1,2,5]-thiadiazino[5,6-a]benzimidazole 6,6-dioxide] gave an ED50 (gastric acid secretion) of 61.2 mg/kg and an inhibition in vivo at 40 mg/kg (gastric acid secretion) of 42.1%.
